From ChEMBL document CHEMBL4184203, “A review on the hybrids of hydroxycinnamic acid as multi-target-directed ligands against Alzheimer's disease” (Bioorg Med Chem, 2018)

Molecular target: Amyloid-beta precursor protein (Homo sapiens) (UniProt P05067)
Experiment: Inhibition of self-mediated aggregation of amyloid beta (1 to 42 residues) (unknown origin) at 10 uM by Thioflavin T based assay relative to control

Amyloid-beta precursor protein (Homo sapiens), sequence (P05067 whole entry, the tested form may be a part): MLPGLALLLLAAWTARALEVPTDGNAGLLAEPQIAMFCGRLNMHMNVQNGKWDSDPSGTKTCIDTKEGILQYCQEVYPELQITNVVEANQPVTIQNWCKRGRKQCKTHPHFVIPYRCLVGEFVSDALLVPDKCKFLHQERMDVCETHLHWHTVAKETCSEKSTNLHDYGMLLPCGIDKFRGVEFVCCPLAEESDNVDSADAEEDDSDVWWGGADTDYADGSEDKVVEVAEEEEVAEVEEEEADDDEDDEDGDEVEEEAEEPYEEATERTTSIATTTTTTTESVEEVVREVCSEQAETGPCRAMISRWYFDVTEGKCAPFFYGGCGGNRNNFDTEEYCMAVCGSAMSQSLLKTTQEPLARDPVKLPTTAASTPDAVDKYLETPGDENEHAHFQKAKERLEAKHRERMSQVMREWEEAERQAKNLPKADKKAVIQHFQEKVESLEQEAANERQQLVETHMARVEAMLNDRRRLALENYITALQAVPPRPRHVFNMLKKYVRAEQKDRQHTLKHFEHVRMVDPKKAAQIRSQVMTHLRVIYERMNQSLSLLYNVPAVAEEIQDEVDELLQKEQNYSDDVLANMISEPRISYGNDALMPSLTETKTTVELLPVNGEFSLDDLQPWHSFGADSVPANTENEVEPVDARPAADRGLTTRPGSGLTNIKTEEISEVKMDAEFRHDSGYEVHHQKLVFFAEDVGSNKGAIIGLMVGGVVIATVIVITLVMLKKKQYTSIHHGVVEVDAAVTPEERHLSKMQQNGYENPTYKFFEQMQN

## COc1cc(/C=C/C(=O)Nc2ccc(-c3ccc(NC(=O)/C=C/c4ccc(O)c(OC)c4)cc3)cc2)ccc1O
  inhibition: 83.7%
